{"source": "patent US6855308B2", "about": "“PACAP compositions and methods for tumor imaging and therapy” (Thomas Jefferson University, priority 2001, dated 2005)", "key": {"[1]": {"format": "physicochemical", "method": "For the metallization reaction, the vial contents were allowed to come to ambient temperature, and 10-40 mCi ^99mTc in 200 μl 0.9% NaCl was injected into the vial. The mixture was incubated at 100° C. for 30 min, and the pH of the reaction mixture was raised to 6-6.5 by addition of 1 ml 0.1 M Na2HPO4. One-hundred twenty-five mg of Na-ascorbate was added as a stabilizing agent. […] The yields at 22° C. are quantitative as determined by HPLC, producing a single peak at Rt. 12.5 min."}, "[2]": {"parameters": "species or system Sprague-Dawley rats", "conditions": "rat, in vivo, iv", "method": "The blood clearance of ^99mTc-TP 3475 was studied in Sprague-Dawley rats as follows. Three Sprague Dawley rats, each weighing approximately 250 grams, were injected through one lateral tail vein with one mCi of ^99mTc-TP 3475, and serial blood samples were drawn in triplicate through the other lateral tail vein at 1, 5, 10, 15, and 30 minutes post-injection, and at 1, 2, 4, 6, 18 and 24 hours post injection. The blood samples were weighed, and radioactivity was counted against a standard ^99mTc solution prepared at the time of injection using standard scintillation counting techniques. The % ID/g plotted as a function of time."}, "T47D xenografts": {"tested_on": "T47D xenografts", "test": "receptor blocking study with PACAP in tumor-bearing mice", "format": "in vivo", "conditions": "PACAP pre-injected; nude mice with T47D xenografts", "method": "In order to determine receptor specificity of […] in human breast tumors, receptor blocking studies with PACAP were performed. In nude mice with T47D xenografts, ^99mTc-TP 3475 tumor uptake was reduced by approximately 50% when PACAP was pre-injected."}, "in vivo": {"test": "in vivo", "conditions": "nude, mouse, iv, total radioactivity", "procedure": "(§1) Approximately 5×10^6 viable cells from either tumor cell line are implanted in the right thigh of each mouse, and tumors are allowed to form. […] Animals are sacrificed at 15 min, 1 hr, 2 hr, 4 hr and 24 hr post-injection, and % of ID/g tissue is determined in all tissues. A control group of tumor-bearing mice is injected with PACAP27 mono-iodinated with ^125I. […] All animals are imaged using a GE STARCAM gamma camera equipped with a dedicated computer and a low energy parallel hole collimator.\n(§2) The co-injected ^99mTc-TP 3475 and ^111In-DTPA-D-Phe^1-Octreotide in the mouse tissues were counted by using the characteristic energy windows for their respective radionuclides (±15 or 20%); e.g., 140 KeV for ^99mTc, and 173 KeV and 247 KeV for ^111In. The ^111In counts in the tissues were again determined when ^99mTc was completely decayed (e.g., 10-12 half-lives)."}, "breast tumors": {"tested_on": "breast tumors", "test": "tumor uptake in tumor-bearing mice", "conditions": "24 hr post-injection", "procedure": "as §1, §2"}, "primary breast cancers": {"tested_on": "primary breast cancers", "conditions": "cited from earlier work"}, "[3]": {"tested_on": "internal anal sphincter (IAS) smooth muscle", "test": "basal tension of opossum internal anal sphincter (IAS) smooth muscle", "parameters": "species or system opossum (Didelphis virginiana)", "conditions": "10^−5 M concentration", "method": "PACAP27 is known to cause a concentration-dependent fall in the basal tension of IAS, by the assay described in Rattan S et al., J. Pharmcol. Exper. Thera. 263: 722-728, 1997, the entire disclosure of which is herein incorporated by reference. This IAS assay was performed with increasing concentrations of TP 3475 until a maximum fall is reached, essentially as described below. PACAP27 was used as a control.\n[…]. The large blood vessels and extraneous tissues including the external […] were removed, and the anal canal was opened and pinned flat with the mucosal side up on a dissecting tray containing oxygenated Krebs' solution (NaCl, 118.07; KCl, 4.69; CaCl2, 2.52; MgS04, 1.16; NaH2PO4, 1.01; NaHC03, 25; and glucose, 11.10). The mucosa was removed, and internal anal sphincter circular smooth muscle strips (approximately 2 mm×1 cm) were prepared from the lowermost part of the anal canal.\nMeasurement of isometric tension—The IAS smooth muscle strips were transferred to temperature-controlled 2 ml “muscle baths” containing Krebs' solution, bubbled continuously with a mixture of 95% O2-5% CO2. […] Isometric tensions were recorded on a Beckman Dynograph recorder (Beckman Instruments, Schiller Park, Ill.). […] Both optimal length and base-line were determined as described in Rattan S et al., 1997, supra."}, "normal lung membrane": {"tested_on": "normal lung membrane", "conditions": "cited from earlier work"}, "[4]": {"tested_on": "PACAP, VIP-R1 and VIP-R2 receptors", "conditions": "cited from earlier work"}, "adenylate cyclase": {"tested_on": "adenylate cyclase", "conditions": "pituitary cells; cited from earlier work"}, "[5]": {"conditions": "reduced from 100 for PACAP27; cited from earlier work"}}, "note": "Entries after “also recorded” stand apart in the source; their conditions may differ. Ends that are not written are not given here. * marks the point of attachment. DTPA = O=C(O)CN(CCN(CC(=O)O)CC(=O)O)CCN(CC(=O)O)CC(=O)*", "data": [{"compound": "CC[C@H](C)[C@H](NC(=O)CNC(=O)[C@H](CC(=O)O)NC(=O)[C@H](CO)NC(=O)[C@@H](N)Cc1c[nH]cn1)C(=O)N[C@@H](Cc1ccccc1)C(=O)N[C@H](C(=O)N[C@@H](CC(=O)O)C(=O)N[C@@H](CO)C(=O)N[C@@H](Cc1ccc(O)cc1)C(=O)N[C@@H](CO)C(=O)N[C@@H](CCCNC(=N)N)C(=O)N[C@@H](Cc1ccc(O)cc1)C(=O)N[C@@H](CCCNC(=N)N)C(=O)N[C@@H](CCCCN)C(=O)N[C@@H](CCC(N)=O)C(=O)N[C@@H](CCSC)C(=O)N[C@@H](C)C(=O)N[C@H](C(=O)N[C@@H](CCCCN)C(=O)N[C@@H](CCCCN)C(=O)N[C@@H](Cc1ccc(O)cc1)C(=O)N[C@@H](CC(C)C)C(=O)N[C@@H](C)C(=O)N[C@@H](C)C(=O)N[C@H](C(=O)N[C@@H](CC(C)C)C(=O)NCCCC(=O)NCC(=O)N[C@H](C)C(=O)NCC(=O)NCC(=O)O)C(C)C)C(C)C)[C@@H](C)O", "note": "[^99mTc-TP 3475, metal not drawn]", "values": [{"measurement": "stability", "setting": "[1]", "value": "stable for 24 hr"}, {"measurement": "blood clearance α-t½", "setting": "[2]; Sprague-Dawley", "value": "approximately 6 min"}, {"measurement": "blood clearance β-t½", "setting": "[2]; Sprague-Dawley", "value": "approximately 90 min"}, {"measurement": "time in which 75% of the radioactivity is cleared from the circulation", "setting": "[2]", "value": "about 12 minutes"}, {"measurement": "reduction of tumor uptake", "setting": "T47D xenografts", "value": "approximately 50%"}, {"measurement": "tissue uptake at 24 h", "setting": "in vivo", "value": "~0.2", "unit": "%ID/g"}]}, {"compound": "[C-]#[N+]CC(C)(C)OC.[C-]#[N+]CC(C)(C)OC.[C-]#[N+]CC(C)(C)OC.[C-]#[N+]CC(C)(C)OC.[C-]#[N+]CC(C)(C)OC.[C-]#[N+]CC(C)(C)OC.[Tc]", "note": "[^99mTc-Sesta-MIBI]", "values": [{"measurement": "tumor uptake", "setting": "breast tumors", "value": "0.18±0.0", "unit": "% ID/g"}]}, {"compound": "C[C@@H](O)[C@@H]1NC(=O)[C@H](CCCCN)NC(=O)[C@@H](Cc2c[nH]c3ccccc23)NC(=O)[C@H](Cc2ccccc2)NC(=O)[C@@H](NC(=O)[C@@H](Cc2ccccc2)NC(=O)CN(CCN(CCN(CC(=O)O)CC(=O)O)CC(=O)O)CC(=O)O)CSSC[C@@H](C(=O)N[C@H](CO)[C@@H](C)O)NC1=O", "note": "[^111In-DTPA-D-Phe^1-Octreotide, metal not drawn]", "values": [{"measurement": "positive scintigraphy", "setting": "primary breast cancers; 52 primary breast cancers", "value": 75, "unit": "%"}, {"measurement": "patients in whom imaging of axillae detected non-palpable, cancer-containing lymph nodes", "setting": "primary breast cancers; patients with histologically-proven metastases", "value": "4 of 13"}, {"measurement": "tissue uptake at 24 h", "setting": "in vivo", "value": "0.09 ± 0.01", "unit": "%ID/g"}]}, {"compound": "HSDGIFTDSYSRYRKQMAVKKYLAAVL [PACAP27]", "values": [{"measurement": "% fall in IAS tension", "setting": "[3]", "value": "equivalent fall in IAS tension; also recorded: equal"}, {"measurement": "IC50", "setting": "normal lung membrane", "value": "~1.5", "unit": "nM"}, {"measurement": "receptor binding affinity", "setting": "[4]", "value": "binds with high affinity to PACAP, VIP-R1 and VIP-R2 receptors"}, {"measurement": "potency in stimulating adenylate cyclase relative to VIP28", "setting": "adenylate cyclase", "value": "ten times more potent"}]}, {"compound": "VIP28: 28-amino acid vasoactive intestinal peptide", "values": [{"measurement": "IC50", "setting": "normal lung membrane", "value": "~15", "unit": "nM"}, {"measurement": "receptor binding affinity", "setting": "[4]", "value": "binds with high affinity only to VIP-R1 and VIP-R2 receptors"}]}, {"compound": "TP 3475: PACAP27 linked via a C-terminal Aba spacer to a Gly-(D)Ala-Gly-Gly chelating agent; SEQ ID NO: 5 (HSDGIFTDSYSRYRKQMAVKKYLAAVLXGAGG; C-terminal Aba spacer, Gly-(D)Ala-Gly-Gly chelator; PACAP analog TP 3475)", "values": [{"measurement": "% fall in IAS tension", "setting": "[3]", "value": "equivalent fall in IAS tension; also recorded: equal"}]}, {"compound": "PACAP27 linked to DTPA at its N-terminus: PACAP27 linked to DTPA at its N-terminus (Reubi et al. 1997) ({DTPA}-HSDGIFTDSYSRYRKQMAVKKYLAAVL; ends and bridges not checked; UniProt P18509 132-158, looked up)", "values": [{"measurement": "biological activity", "setting": "[5]", "value": "< 0.01"}]}]}
